Laboratory results taken from patent publication US20060177517A1, “Antiinflammtory agent and antiinflammatory medical material” (priority 2003, published 2006).

Columns and labels:
human neutrophils = assay: IL-1β production by human neutrophils treated with GMDP and/or polyphosphoric acid (ELISA); format: cell-based
Description: To confirm the effect of suppressing inflammatory cytokine production with the polyphosphoric acid obtained according to the above production example, an experiment was conducted to observe IL-1β production using human neutrophils. Neutrophils were separated from 25 ml of human blood and then suspended in a Dulbecco's Modified Eagle's Medium. […] Treatment was carried out for maximum of 5 hours at 37° C. […] The IL-1β production amount at each time point was measured using an ELISA Kit.

[1] = test system: Streptococcus mutans JC2 strain; assay: Suppression of intraoral bacteria growth, absorbance at 595 nm; format: cell-based; details: 24 hours after treatment
Description: A test of suppression of bacterial growth with the polyphosphoric acid obtained according to the above production example was conducted using intraoral bacteria, Streptococcus mutans (S. mutans) and Porphylomonas gingivalis (P gingivalis). The S. mutans JC2 strain was anaerobically cultured at 37° C. using Heart infusion media. For the treated groups, polyphosphoric acid was added to the culture solutions at different concentrations (0%, 0.06%, and 0.5%). For comparison groups, phosphate buffers were added at different concentrations (0%, 0.06%, and 0.5%) to culture solutions. The bacteria were cultured for a maximum of 2 days. […] In the meantime, the P. gingivalis ATCC33277 strain was anaerobically cultured using brain-heart-infusion media at 37° C. for the same time period as employed above by adding polyphosphoric acid at different concentrations (0%, 0.015%, 0.03%, 0.06%, 0.12%, 0.25%, and 0.5%) to culture solutions. Bacterial growth was observed over time by measuring absorbance at 595 nm.

[2] = test system: P. gingivalis ATCC33277 strain; assay: as above; format: cell-based, Porphylomonas gingivalis; details: polyphosphoric acid concentration of 0.01%, 48 hours after treatment
Description: A test of suppression of bacterial growth with the polyphosphoric acid obtained according to the above production example was conducted using intraoral bacteria, Streptococcus mutans (S. mutans) and Porphylomonas gingivalis (P gingivalis). The S. mutans JC2 strain was anaerobically cultured at 37° C. using Heart infusion media. For the treated groups, polyphosphoric acid was added to the culture solutions at different concentrations (0%, 0.06%, and 0.5%). For comparison groups, phosphate buffers were added at different concentrations (0%, 0.06%, and 0.5%) to culture solutions. […] Bacterial growth was observed over time by measuring absorbance at 595 nm.

[3] = test system: periodontal tissue inflammation; assay: Suppression of periodontal tissue inflammation in rat artificial periodontal pockets (HE staining); format: in vivo, Wister rats; details: approx. 0.1 ml of 1% solution injected into gingival crevice every day for 10 days
Description: Male Wister rats (8-week-old; 10 rats in total) were anesthetized, and then the periosteum of the alveolar part of maxillary first molar tooth was stripped. Portions of approximately 2 mm were eliminated from the buccal alveolar apexes of the maxillary first molar tooth and of the maxillary second molar tooth, using a ½ round bar, thereby forming artificial periodontal pockets (gingival crevices). In the case of the treated group (5 rats), approximately 0.1 ml of 1% polyphosphoric acid solution was injected into each gingival crevice using a syringe. Furthermore, in the case of the comparison group (5 rats), only a 1% phosphate buffer was injected. This injection procedure was carried out every day for 10 days from the day following the operation for the preparation of gingival crevices. Rats that had been treated for a certain time period were euthanized under inhalation anesthesia (ether). The maxilla bones were amputated, and then the tissues were fixed for 1 day by immersion using 10% neutral buffered formalin (pH 7.4). Subsequently, the resultants were subjected to acid demineralization at room temperature for approximately 2 days. After completion of demineralization, the samples were trimmed by excision at the second molar tooth, and then paraffin-embedded with their cut surfaces positioned downward. […]

[4] = test system: inflammation at wound site; assay: Suppression of inflammation at wound site, rat dorsal wound model (HE staining); format: in vivo, Wistar rat; details: 1% solution locally injected 5 days a week
Source text: The dorsum of each 6-week-old male Wistar rat was shaved under ether anesthesia, and then a 20-mm incision was made along the long axis of the body with a depth reaching to the fascia. Both ends of the center of the wound were stitched to the fascia using a piece of string so as to produce a 5-mm-wide spindle-shaped wound model (FIG. 4). A 1% polyphosphoric acid solution was locally injected 5 days a week into each wound of the rats in the treated group. A 1% phosphate buffer was locally injected 5 days a week into each wound of the rats in the comparison group. The rats were euthanized on days 3 and 7. Tissue located in the area extending from 5 mm to the left of and 5 mm to the right of the wound center was obtained by excising skin on the fascia as shown in FIG. 4. The tissues were subjected to HE staining and then histopathological observance was carried out.

Molecule: CC(=O)NC1C(OC2C(CO)OC(O)C(NC(C)=O)C2OC(C)C(=O)NC(C)C(=O)NC(CCC(=O)O)C(N)=O)OC(CO)C(O)C1O [GMDP, N-Acetyl-D-Glucosaminyl-β(1-4)-N-acetylmuramyl-L-alanyl-D-isoglutamine, reference compound]
- IL-1β production amount (human neutrophils; 30 μg GMDP alone, up to 5 hours): increased with time

Molecule: O=P(O)(O)O [phosphoric acid, reference compound]
- bacterial growth of S. mutans ([1]; phosphoric acid concentration of 0.5%): no large changes

Molecule: polyphosphoric acid
- bacterial growth of P. gingivalis [2]: significantly suppressed bacterial growth
- bacterial growth of S. mutans ([1]; polyphosphoric acid concentration of 0.06%): significantly suppressed bacterial growth
- inflammatory cells in the peripheries of the treated sites [3]: Almost no inflammatory cells were observed
- IL-1β production amount (human neutrophils; GMDP plus polyphosphoric acids (0.2, 1, 5 mM), 5 hours after treatment): decreased depending on the concentrations of the polyphosphoric acids
- IL-1β production amount (human neutrophils; GMDP plus polyphosphoric acids (0.2, 1, 5 mM), until 3 hours after treatment, versus GMDP alone): suppressed to a level similar to that of the comparison group
- IL-1β production amount (human neutrophils; polyphosphoric acids alone (0.2, 1, 5 mM), no GMDP): almost the same at any polyphosphoric acid concentration as that in the case of the comparison group
- extension of the epithelia toward the centers of the wounds ([4]; day 3 after operation): significant extension
- infiltration by inflammatory cells at the wound ([4]; day 3 after operation): infiltration by inflammatory cells decreased
- epithelialization of the wound surfaces ([4]; day 7 after operation): almost completely epithelialized
- extension of the epithelia at the cut ends of the wounds, compared with the comparison group ([4]; day 7 after operation): promoted
- inflammation at the centers of the wounds ([4]; day 7 after operation): inflammation remained slight and partial on the upper parts
